Results as given in US5919701A, “Oligonucleotides with activity against human immunodeficiency virus” (priority 1997, dated 1999).

How the values were obtained:
HIV-1 (LAI) [1] = test: p24 assay, PBMC infected with HIV-1 (LAI); format: cell-based, HIV-1; PBMC
HIV-1 (LAI) [2] = test: Plaque assay, HeLa-CD4 cells infected with HIV-1 (LAI); format: cell-based, HIV-1; HeLa-CD4 cells; settings: HeLa-CD4, HIV-1 (LAI), plaques formed
Protocol: (§1) HeLa-CD4 cells were tested using a plaque assay as described below. Specific cells (as described in Table 4) were detached using trypsin-EDTA for 8-10 minutes at 37° C. The cells were then centrifuged at 100 rpm for 10 minutes. Cells were resuspended in 5-10 ml of maintenance medium (Dulbecco's Modified Eagle Medium ("DMEM") containing 10% fetal calf serum, […], […], and 2 mM glutamine). Cells were maintained by splitting the culture once weekly into two 75 cm^2 T-flasks at a concentration of 3×10^4 cells/ml in a total volume of […] maintenance medium.
(§2) On day 0, the cells were plated into the wells of a 24 well tissue culture plate (Falcon #3047) at a concentration of 2.4×10^4 cells per well. The cells were incubated overnight at 37° C. The next day the medium was aspirated, and 200 μl of HIV virus at a multiplicity of infection ("MOI") of 0.03 was added to each well. The plates were then incubated for 2 hours at 37° C. After the 2 hour incubation, the cells were treated with 800 μl of drug at a concentration (in DMEM) of 1.25× of the final concentration.
(§3) The treated cells were incubated for 3 days at 37° C. On day 4 the plate was fixed with 1 ml/well of 100% methanol for 15 minutes. The wells were then aspirated and 0.5 ml of 0.3% crystal violet stain was added to the wells. […] Plaques were counted using a microscope. […]

[3] = tested on: replication defective HIV generated by 8e5 cells; test: p24 production by 8e5 cells (p24 capture ELISA of cell lysates); format: cell-based, HIV; human T-cell line 8e5; settings: for inhibiting p24 production (in words): summary of Table 3; for inhibition / p24 production: range over experiments
Protocol: The effect of several phosphorothioate antisense oligonucleotides on HIV replication was determined by measuring p24 (an HIV-specific polypeptide) produced by 8e5 cells. The 8e5 cell line is a human T-cell line that generates replication defective HIV (Folks et al. U.S. Pat. No. 4,752,565). The defective HIV contains a single integrated provirus that expresses all HIV proteins at levels typically observed in chronically infected cell lines except those encoded by pol. This defect is due to a single base insertion that causes a frame shift mutation in pol.
Oligonucleotides having phosphorothioate linkages were synthesized according to Bhatt supra. Synthesized oligonucleotides were purified using HPLC, extracted with ethyl acetate, ethanol precipitated, washed with 80% ethanol and suspended in sterile water to generate high concentration stock solutions that facilitated small volume addition (2-20 μl).
Phosphorothioate antisense oligonucleotides were added directly to 8e5 cultures. Sterile water and non-specific phosphorothioate oligonucleotides were utilized as controls. The cultures were harvested after 4 days, and the viable cell count and production of p24 antigen were determined. Cell lysates were prepared by spinning down cells from 2 ml wells at 1000 rpm for 10 minutes at 4° C. using a Beckman J-10, and removing the supernatant. The cells were then washed with 5 ml of Hanks balanced salt solution (Gibco) or sterile saline solution (0.9% NaCl), and spun down at 1000 rpm for 10 minutes at 4° C. using a Beckman J-10. The cells were resuspended in 300 μl of TSM (10 mM Tris-HCl pH 7.5, 150 mM NaCl, 2 MM MgCl2) with 0.5% NP-40, and incubated on ice for 5 minutes. The nuclei and cellular debris were then spun down at 2000 rpm using a Beckman J-10. The amount of p24 antigen was determined in cell lysates using a p24 capture ELISA (American Biotechnologies, Inc.).
The ELISA assay for p24 was selected as a measure of HIV replication because expression of tat and rev are required for efficient p24 production. The percentage of HIV p24 production was calculated as p24/cell production by antisense treated cells divided by p24/cell production by control treated cells. Control treated cells were treated with a random control phosphorothioate oligonucleotide (SEQ. ID. NO. 47: AGGCTTCATCACGTGGACATTGACG).

[4] = tested on: HIV patient isolates (PO22); test: Plaque assay, HeLa-CD4 cells infected with patient isolates (PO22); format: cell-based, HIV; HeLa-CD4 cells; settings: plaques formed
Protocol: as §1, §2, §3

HIV-2 (ROD) = test: Plaque assay, HeLa-CD4 cells infected with HIV-2 (ROD); format: cell-based, HIV-2; HeLa-CD4 cells; settings: HeLa-CD4, HIV-2 (ROD), plaques formed
Protocol: as §1, §2, §3

[5] = tested on: HIV patient isolates (AO18); test: Plaque assay, HeLa-CD4 cells infected with patient isolates (AO18); format: cell-based, HIV; HeLa-CD4 cells; settings: plaques formed
Protocol: as §1, §2, §3

human bone marrow cells = test: Cytotoxicity: colony formation of human bone marrow cells; format: cell-based; settings: agar medium with G-CSF, eight days in culture
Protocol: The cytotoxicity of the test oligonucleotides was determined in a system using primary human blood cells using techniques known to those of skill in the art to measure cytotoxicity of anti-neoplastic agents. Human bone marrow cells were harvested and washed in an isotonic solution, then incubated in tissue culture medium containing 0.3% (w/v) agar, 20% (v/v) fetal calf serum, and 10 ng/ml granulocyte-colony stimulating factor with varying amounts of the two test oligonucleotides. The number of colonies formed were measured after eight days in culture. The IC50 for colony formation in this experiment was 2-3 μM for SEQ. ID. NO: 18 and 20-30 μM for SEQ. ID. NO: 22.

[6] = In vivo mouse study: blood parameters, body weight and organ morphology; settings: mice, 100 mg/kg
Protocol: In vivo experiments were also performed using rodent models. These experiments focused on the potential for gross morphological changes in blood tissue upon administration of a phosphorothioate linked oligonucleotide having the nucleic acid sequence of SEQ. ID. NO: 18 (in a solution of PBS). Three mice were given the oligonucleotide at a dose of 100 mg/kg body weight. Four control mice were given PBS alone. Blood samples were taken from each animal at t=0, and at 24 hours each animal was sacrificed and the organs removed. The experimental findings with regard to blood parameters are shown in Table 5, and the results obtained upon visual inspection of the organs are shown in Table 6.

[7] = 10 μM, Table 3 (small length oligonucleotides)
[8] = 20 μM, Table 3 (small length oligonucleotides)
[9] = 2 μM, 4 days, Table 2, relative to cells treated with random control oligonucleotide SEQ. ID. NO. 47
[10] = 10 μM, 4 days, Table 2, relative to cells treated with random control oligonucleotide SEQ. ID. NO. 47

Cc1cn([C@H]2C[C@H](N=[N+]=[N-])[C@@H](CO)O2)c(=O)[nH]c1=O [AZT, reference compound]
IC50 (HIV-1 (LAI) [1]; Human immunodeficiency virus 1): 3 nM | IC50 (HIV-1 (LAI) [2]; Human immunodeficiency virus 1): 7 to 20 nM

ATTCTGCTATGTCGACACCCAA (ATTCTGCTATGTCGACACCCAA; chemistry not given here) [SEQ. ID. NO. 46]
% p24 production [3, 7]: 87% | % p24 production [3, 8]: 81% | inhibiting p24 production (in words) [3]: effective

ATTGGTACAAGCAGTTTTAGGCT (ATTGGTACAAGCAGTTTTAGGCT; chemistry not given here) [SEQ. ID. NO. 31]
% p24 production [3, 9]: 100% | % p24 production [3, 10]: 15%

CGGGCCTGTCGGGTCCCCTCGGGA (CGGGCCTGTCGGGTCCCCTCGGGA; chemistry not given here) [SEQ. ID. NO. 36]
% p24 production [3, 9]: 71% | % p24 production [3, 10]: 89%

CTGTCGGGTC CCCTCGGG (CTGTCGGGTCCCCTCGGG; chemistry not given here) [SEQ. ID. NO. 26]
% p24 production [3, 8]: 44% | inhibiting p24 production (in words) [3]: particularly effective

CTTCGGGCCTGTCGGGTCCCCTCGGG (CTTCGGGCCTGTCGGGTCCCCTCGGG; chemistry not given here) [SEQ. ID. NO. 18]
IC50 ([4]; AZT Resistant): 18 nM | IC50 ([4]; AZT Sensitive): 45 nM | IC50 (HIV-2 (ROD)): 18 nM | IC50 ([5]; AZT Resistant): 55 nM | IC50 ([5]; AZT Sensitive): 80 nM | IC50 (HIV-1 (LAI) [1]): 120 nM | IC50 (human bone marrow cells): 2000 to 3000 nM | HGB ([6]; 0 hr): 16.0 ± 0.2 g/dL | PLT ([6]; 0 hr): 111.8 ± 2.7 ×10^4 /μl | RBC ([6]; 0 hr): 1032.3 ± 8.1 ×10^4 /μl | WBC ([6]; 0 hr): 94.7 ± 18.2 ×10^2 /μl | Body Weight ([6]; 24 hours): Unchanged | Morphological findings, Bone Marrow ([6]; 24 hours, visual inspection): Normal | Morphological findings, Heart ([6]; 24 hours, visual inspection): Normal | Morphological findings, Kidney ([6]; 24 hours, visual inspection): Normal | Morphological findings, Liver ([6]; 24 hours, visual inspection): Normal | Morphological findings, Spleen ([6]; 24 hours, visual inspection): Slight Splenomegaly | Morphological findings, Thymus ([6]; 24 hours, visual inspection): Normal | HGB ([6]; 24 hr): 15.3 ± 0.5 g/dL | PLT ([6]; 24 hr): 99.4 ± 0.9 ×10^4 /μl | RBC ([6]; 24 hr): 990.3 ± 34.3 ×10^4 /μl | WBC ([6]; 24 hr): 79.3 ± 15.3 ×10^2 /μl | % p24 production [3, 9]: 55% | % p24 production [3, 10]: 0% | inhibition [3]: 70-100% | p24 production [3]: 0 to 30% | IC50 (HIV-1 (LAI) [2]): 200 nM

GAGCTCTTCGTCGCTGTCTCCGCTTCT (GAGCTCTTCGTCGCTGTCTCCGCTTCT; chemistry not given here) [SEQ. ID. NO. 17]
% p24 production [3, 9]: 99% | % p24 production [3, 10]: 56%

GCCTATTCTGCTATGTCGACACCCAA (GCCTATTCTGCTATGTCGACACCCAA; chemistry not given here) [SEQ. ID. NO. 35]
% p24 production [3, 9]: 56% | % p24 production [3, 10]: 0% | inhibition [3]: 70-100% | p24 production [3]: 0 to 30%

GCCTGTCGGG TCCC (GCCTGTCGGGTCCC; chemistry not given here) [SEQ. ID. NO. 22]
IC50 (human bone marrow cells): 20000 to 30000 nM | % p24 production [3, 7]: 3% | % p24 production [3, 8]: 31% | inhibiting p24 production (in words) [3]: particularly effective

GCCTGTCGGG TCCT (GCCTGTCGGGTCCT; chemistry not given here) [SEQ. ID. NO. 20]
% p24 production [3, 7]: 55% | % p24 production [3, 8]: 42% | inhibiting p24 production (in words) [3]: particularly effective

GCTTCTTCCTGCCATAGGAGA (GCTTCTTCCTGCCATAGGAGA; chemistry not given here) [SEQ. ID. NO. 33]
% p24 production [3, 9]: 109% | % p24 production [3, 10]: 74%

GGGCCTGTCGGGTCCCCTCGGG (GGGCCTGTCGGGTCCCCTCGGG; chemistry not given here) [SEQ. ID. NO. 29]
% p24 production [3, 7]: 79% | % p24 production [3, 8]: 58% | inhibiting p24 production (in words) [3]: particularly effective

TTGGGAGGTG GGTTGCTTTG (TTGGGAGGTGGGTTGCTTTG; chemistry not given here) [SEQ. ID. NO. 14]
% p24 production [3, 9]: 103% | % p24 production [3, 10]: 66%
